Source: PubChem BioAssay (NCI)
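All cell lines were grown in 96-well plates and treated with compound for 48 hours. GI50: concentration for 50% inhibition of growth. TGI: total growth inhibition.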 Where a SMILES comes first, the peptide text is derived from it. [ ]: non-standard residue; d: D form. Phe(ol) = N[C@H](CO)Cc1ccccc1; dIva = CC[C@@](C)(N)C(=O)O; Aib = CC(C)(N)C(=O)O

Assays:
Test in all cases: DTP human tumour cell line panel, 48 h
SW-620 colon = tested on: SW-620 colon
RPMI-8226 leukemia = tested on: RPMI-8226 leukemia
MALME-3M melanoma = tested on: MALME-3M melanoma
MCF7 breast = tested on: MCF7 breast
NCI-H460 lung = tested on: NCI-H460 lung
NCI-H23 lung = tested on: NCI-H23 lung
MOLT-4 leukemia = tested on: MOLT-4 leukemia
OVCAR-3 ovarian = tested on: OVCAR-3 ovarian
UACC-257 melanoma = tested on: UACC-257 melanoma
HOP-62 NSCLC = tested on: HOP-62 NSCLC
UACC-62 melanoma = tested on: UACC-62 melanoma
A498 renal = tested on: A498 renal
COLO 205 colon = tested on: COLO 205 colon
EKVX NSCLC = tested on: EKVX NSCLC
CCRF-CEM leukemia = tested on: CCRF-CEM leukemia
HT29 colon = tested on: HT29 colon
SF-539 CNS = tested on: SF-539 CNS
HCC-2998 colon = tested on: HCC-2998 colon
BT-549 breast = tested on: BT-549 breast
786-0 renal = tested on: 786-0 renal
SF-295 CNS = tested on: SF-295 CNS
SF-268 CNS = tested on: SF-268 CNS
SNB-75 CNS = tested on: SNB-75 CNS
SK-MEL-5 melanoma = tested on: SK-MEL-5 melanoma
T-47D breast = tested on: T-47D breast
NCI/ADR-RES ovarian = tested on: NCI/ADR-RES ovarian
NCI-H522 lung = tested on: NCI-H522 lung
IGROV1 ovarian = tested on: IGROV1 ovarian

CC[C@@](C)(NC(=O)C(C)(C)NC(=O)[C@@H](NC(=O)[C@@H]1CCCN1C(=O)C(C)(C)NC(=O)[C@H](CC(C)C)NC(=O)CNC(=O)C(C)(C)NC(=O)[C@@H](NC(=O)C(C)(C)NC(=O)[C@H](CCC(N)=O)NC(=O)[C@H](C)NC(=O)C(C)(C)NC(=O)[C@H](C)NC(=O)C(C)(C)NC(=O)[C@@H]1CCCN1C(=O)C(C)(C)NC(C)=O)C(C)C)C(C)C)C(=O)N[C@@H](CCC(N)=O)C(=O)N[C@@H](CCC(N)=O)C(=O)N[C@H](CO)Cc1ccccc1 (Ac-[Aib]P[Aib]A[Aib]AQ[Aib]V[Aib]GL[Aib]PV[Aib][dIva]QQ[Phe(ol)])
GI50 (SW-620 colon): 3.34 µM | TGI (SW-620 colon): > 4.25 µM | GI50 (RPMI-8226 leukemia): 0.265 µM | TGI (RPMI-8226 leukemia): 2.41 µM | GI50 (MALME-3M melanoma): 0.856 µM | TGI (MALME-3M melanoma): 2.14 µM | GI50 (MCF7 breast): 0.215 µM | TGI (MCF7 breast): > 4.25 µM | GI50 (NCI-H460 lung): 1.52 µM | TGI (NCI-H460 lung): > 4.25 µM | GI50 (NCI-H23 lung): 1 µM | TGI (NCI-H23 lung): > 4.25 µM | GI50 (MOLT-4 leukemia): 1.47 µM | TGI (MOLT-4 leukemia): > 4.25 µM | GI50 (OVCAR-3 ovarian): 1.14 µM | TGI (OVCAR-3 ovarian): > 4.25 µM | GI50 (UACC-257 melanoma): 1.21 µM | TGI (UACC-257 melanoma): > 4.25 µM | GI50 (HOP-62 NSCLC): > 4.25 µM | TGI (HOP-62 NSCLC): > 4.25 µM | GI50 (UACC-62 melanoma): 1.73 µM | TGI (UACC-62 melanoma): > 4.25 µM | GI50 (A498 renal): > 4.25 µM | TGI (A498 renal): > 4.25 µM | GI50 (COLO 205 colon): 1.29 µM | TGI (COLO 205 colon): > 4.25 µM | GI50 (EKVX NSCLC): > 4.25 µM | TGI (EKVX NSCLC): > 4.25 µM | GI50 (CCRF-CEM leukemia): 2.93 µM | TGI (CCRF-CEM leukemia): > 4.25 µM | GI50 (HT29 colon): 1.72 µM | TGI (HT29 colon): > 4.25 µM | GI50 (SF-539 CNS): 1.53 µM | TGI (SF-539 CNS): > 4.25 µM | GI50 (HCC-2998 colon): 1.96 µM | TGI (HCC-2998 colon): > 4.25 µM | GI50 (BT-549 breast): 0.966 µM | TGI (BT-549 breast): 2.67 µM | GI50 (786-0 renal): > 4.25 µM | TGI (786-0 renal): > 4.25 µM | GI50 (SF-295 CNS): > 4.25 µM | TGI (SF-295 CNS): > 4.25 µM | GI50 (SF-268 CNS): 1.63 µM | TGI (SF-268 CNS): > 4.25 µM | GI50 (SNB-75 CNS): 1.15 µM | TGI (SNB-75 CNS): > 4.25 µM | GI50 (SK-MEL-5 melanoma): 1.17 µM | TGI (SK-MEL-5 melanoma): 3.62 µM | GI50 (T-47D breast): 0.974 µM | TGI (T-47D breast): 4.02 µM | GI50 (NCI/ADR-RES ovarian): > 4.25 µM | TGI (NCI/ADR-RES ovarian): > 4.25 µM | GI50 (NCI-H522 lung): 0.873 µM | TGI (NCI-H522 lung): 4.03 µM | GI50 (IGROV1 ovarian): 2.51 µM | TGI (IGROV1 ovarian): > 4.25 µM
